Results taken from ChEMBL document CHEMBL3272303.
Calls of active or inactive are those of the source. The calls are words filed in the database; no cut-off is given here.

Legend:
[1] = molecular target: Beta-2 adrenergic receptor (Cavia porcellus) (UniProt Q8K4Z4); settings: Trachea
[2] = molecular target: Beta-2 adrenergic receptor (Cavia porcellus) (UniProt Q8K4Z4); test: Agonist activity at beta 2 adrenergic receptor in guinea pig trachea assessed as tracheal relaxation at 10^-9 to 10^-4 M
[3] = molecular target: Beta-2 adrenergic receptor (Rattus norvegicus) (UniProt P10608); test: Agonist activity at beta 2 adrenergic receptor in Sprague-Dawley rat adipocytes assessed as lipolysis at 10^-9 to 10^-4 M after 1 hr; type: cell-based
Beta-2 adrenergic receptor (Rattus norvegicus), sequence (P10608 whole entry, looked up): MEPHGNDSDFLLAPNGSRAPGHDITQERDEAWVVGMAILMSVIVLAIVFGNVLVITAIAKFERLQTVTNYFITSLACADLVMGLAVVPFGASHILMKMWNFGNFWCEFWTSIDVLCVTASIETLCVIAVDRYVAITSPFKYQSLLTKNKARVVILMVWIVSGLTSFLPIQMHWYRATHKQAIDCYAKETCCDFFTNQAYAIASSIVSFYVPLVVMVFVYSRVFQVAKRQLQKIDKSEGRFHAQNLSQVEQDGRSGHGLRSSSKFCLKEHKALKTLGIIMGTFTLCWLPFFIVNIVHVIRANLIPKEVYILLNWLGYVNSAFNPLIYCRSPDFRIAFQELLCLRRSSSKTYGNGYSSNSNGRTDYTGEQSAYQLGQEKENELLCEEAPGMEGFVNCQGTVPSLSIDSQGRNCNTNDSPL

[4] = molecular target: Beta-2 adrenergic receptor (Cavia porcellus) (UniProt Q8K4Z4); test: Antagonist activity at beta 2 adrenergic receptor in guinea pig trachea assessed as inhibition of trimetoquinol-induced tracheal relaxation at 10^-4 M preincubated for 30 mins followed by trimetoquinol addition measured within 1 hr
[5] = molecular target: Beta-1 adrenergic receptor (Cavia porcellus) (UniProt B0FL73); test: Antagonist activity at beta 1 adrenergic receptor in guinea pig right atria assessed as inhibition of trimetoquinol-induced chronotropic response at 10^-4 M preincubated for 30 mins followed by trimetoquinol addition measured within 45 mins relative to control
Beta-1 adrenergic receptor (Cavia porcellus), sequence (B0FL73 1-467): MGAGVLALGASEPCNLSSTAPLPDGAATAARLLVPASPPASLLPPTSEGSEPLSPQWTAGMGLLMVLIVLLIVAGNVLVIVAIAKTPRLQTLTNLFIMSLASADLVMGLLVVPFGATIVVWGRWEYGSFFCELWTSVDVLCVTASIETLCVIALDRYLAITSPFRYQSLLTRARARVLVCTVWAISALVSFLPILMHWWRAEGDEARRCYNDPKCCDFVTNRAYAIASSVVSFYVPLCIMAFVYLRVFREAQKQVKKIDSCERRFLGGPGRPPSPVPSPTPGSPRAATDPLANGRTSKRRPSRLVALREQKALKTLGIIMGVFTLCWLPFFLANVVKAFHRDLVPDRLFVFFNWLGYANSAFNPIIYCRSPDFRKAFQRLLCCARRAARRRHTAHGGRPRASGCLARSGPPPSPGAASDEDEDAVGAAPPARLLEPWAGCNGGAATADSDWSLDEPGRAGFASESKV

[6] = molecular target: Beta-1 adrenergic receptor (Cavia porcellus) (UniProt B0FL73); test: Antagonist activity at beta 1 adrenergic receptor in guinea pig right atria assessed as inhibition of 10^-3 M trimetoquinol-induced chronotropic response at 10^-4 M preincubated for 30 mins followed by trimetoquinol addition measured within 1 hr
[7] = molecular target: Beta-1 adrenergic receptor (Cavia porcellus) (UniProt B0FL73); test: Antagonist activity at beta 1 adrenergic receptor in guinea pig right atria assessed as inhibition of 10^-3 M isoproterenol-induced chronotropic response at 10^-4 M
[8] = molecular target: Beta-1 adrenergic receptor (Cavia porcellus) (UniProt B0FL73); test: Competitive antagonist activity at beta 1 adrenergic receptor in guinea pig right atria assessed as inhibition of trimetoquinol-induced chronotropic response at 10^-6 to 10^-5 M preincubated for 30 mins followed by trimetoquinol addition measured within 1 hr
[9] = molecular target: Beta-1 adrenergic receptor (Cavia porcellus) (UniProt B0FL73); test: Partial agonist activity at beta 1 adrenergic receptor in guinea pig right atria assessed as chronotropic response measured over 3 mins

Beta-2 adrenergic receptor (Cavia porcellus), sequence (Q8K4Z4 whole entry, looked up): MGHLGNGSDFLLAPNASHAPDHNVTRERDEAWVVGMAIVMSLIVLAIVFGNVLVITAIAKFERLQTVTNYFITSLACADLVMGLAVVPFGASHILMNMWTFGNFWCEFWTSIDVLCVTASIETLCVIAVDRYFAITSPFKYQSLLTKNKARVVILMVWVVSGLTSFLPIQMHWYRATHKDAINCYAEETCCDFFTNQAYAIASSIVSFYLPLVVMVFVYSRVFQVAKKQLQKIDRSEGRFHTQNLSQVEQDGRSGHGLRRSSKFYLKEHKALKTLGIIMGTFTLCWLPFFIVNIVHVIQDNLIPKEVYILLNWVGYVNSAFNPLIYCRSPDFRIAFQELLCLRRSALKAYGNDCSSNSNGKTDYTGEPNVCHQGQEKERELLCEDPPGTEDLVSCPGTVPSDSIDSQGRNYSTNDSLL

**Q.** For `COc1cc(C[C@@H]2NCCc3cc(O)c(O)cc32)cc(OC)c1OC`, which pD2 [1] is on record?
**A.** The pD2 was 7.

**Q.** Which results are given for `COc1cc(CC2(Cc3ccccc3)NCCc3cc(O)c(O)cc32)cc(OC)c1OC` (configuration not stated)?
**A.** Activity [2]: inactive; Activity [3]: inactive; inhibition [4]: inactive; inhibition [5]: < 10%; inhibition [6]: Active; inhibition [7]: Active; inhibition [8]: Active

**Q.** For `COc1cc(CC2(C)NCCc3cc(O)c(O)cc32)cc(OC)c1OC` (configuration not stated), which Activity [2] is on record?
**A.** Its Activity is “inactive”.

**Q.** What about the Activity [3] of the same compound?
**A.** The Activity was “inactive”.

**Q.** What about the inhibition [4] of the same compound?
**A.** The inhibition was “inactive”.

**Q.** What about the Activity [9] of the same compound?
**A.** Its Activity is “Active”.
